Assay results published in the NIST ThermoML archive (doi:10.1021/je0601255).

Experiment: xn = mol fraction of the nth substance listed
Settings: 101 kPa, Liquid; for viscosity: Capillary tube (Ostwald / Ubbelohde) method; for mass density: Pycnometric method

C=C(C)C(=O)OCCO [2-hydroxyethyl 2-methyl-2-propenoate] + CCCCO
Settings | mass density, 288.15 K [kg/m3] | mass density, 298.15 K [kg/m3] | mass density, 308.15 K [kg/m3] | mass density, 318.15 K [kg/m3] | viscosity, 288.15 K [mPa·s] | viscosity, 298.15 K [mPa·s] | viscosity, 308.15 K [mPa·s] | viscosity, 318.15 K [mPa·s]
x2 = 0 | 1074.7 | 1067.1 | 1057.7 | 1048.6 | 8.234 | 5.784 | 4.194 | 3.181
x2 = 0.1 | 1054.5 | 1047.1 | 1037.9 | 1029.1 | 7.303 | 5.188 | 3.822 | 2.963
x2 = 0.2 | 1033.3 | 1025.9 | 1016.9 | 1008.3 | 6.437 | 4.643 | 3.432 | 2.692
x2 = 0.3 | 1010.9 | 1003.6 | 994.8 | 986.3 | 5.681 | 4.154 | 3.109 | 2.43
x2 = 0.4 | 987.3 | 980 | 971.3 | 963 | 5.118 | 3.738 | 2.829 | 2.222
x2 = 0.5 | 962.2 | 955.1 | 946.6 | 938.3 | 4.633 | 3.398 | 2.598 | 2.051
x2 = 0.6 | 935.7 | 928.6 | 920.3 | 912.1 | 4.195 | 3.092 | 2.399 | 1.9
x2 = 0.7 | 907.6 | 900.6 | 892.4 | 884.4 | 3.833 | 2.834 | 2.212 | 1.759
x2 = 0.8 | 877.7 | 870.8 | 862.9 | 855 | 3.534 | 2.666 | 2.089 | 1.657
x2 = 0.9 | 846 | 839.2 | 831.5 | 823.8 | 3.321 | 2.583 | 2.018 | 1.609

C=C(C)C(=O)O [2-methyl-2-propenoic acid] + CCCCO
Settings | mass density, 288.15 K [kg/m3] | mass density, 298.15 K [kg/m3] | mass density, 308.15 K [kg/m3] | mass density, 318.15 K [kg/m3] | viscosity, 288.15 K [mPa·s] | viscosity, 298.15 K [mPa·s] | viscosity, 308.15 K [mPa·s] | viscosity, 318.15 K [mPa·s]
x2 = 0 | 1018.3 | 1009.5 | 999.4 | 989.2 | 1.447 | 1.267 | 1.078 | 0.945
x2 = 0.1 | 996.3 | 987.7 | 978 | 968.1 | 1.632 | 1.4 | 1.174 | 1.015
x2 = 0.2 | 974.7 | 966.5 | 957.4 | 948.1 | 1.818 | 1.534 | 1.275 | 1.09
x2 = 0.3 | 954.3 | 946.3 | 937.7 | 928.7 | 2.009 | 1.672 | 1.377 | 1.16
x2 = 0.4 | 934.2 | 926.6 | 918.1 | 909.3 | 2.2 | 1.81 | 1.476 | 1.227
x2 = 0.5 | 914.2 | 907 | 898.6 | 890.1 | 2.392 | 1.947 | 1.574 | 1.294
x2 = 0.6 | 894.2 | 887.4 | 879 | 870.6 | 2.576 | 2.079 | 1.667 | 1.355
x2 = 0.7 | 874.1 | 867.3 | 859.1 | 851 | 2.756 | 2.204 | 1.756 | 1.413
x2 = 0.8 | 853.7 | 847 | 839.2 | 831.4 | 2.935 | 2.329 | 1.842 | 1.466
x2 = 0.9 | 832.9 | 826.7 | 819.1 | 811.5 | 3.111 | 2.453 | 1.925 | 1.515

C=C(C)C(=O)OCc1ccccc1 [benzyl methacrylate] + CCCCO
Settings | mass density, 288.15 K [kg/m3] | mass density, 298.15 K [kg/m3] | mass density, 308.15 K [kg/m3] | mass density, 318.15 K [kg/m3] | viscosity, 288.15 K [mPa·s] | viscosity, 298.15 K [mPa·s] | viscosity, 308.15 K [mPa·s] | viscosity, 318.15 K [mPa·s]
x2 = 0 | 1041.2 | 1034.7 | 1025.8 | 1017 | 2.871 | 2.302 | 1.885 | 1.58
x2 = 0.1 | 1027.8 | 1021.3 | 1012.5 | 1003.9 | 2.655 | 2.123 | 1.746 | 1.455
x2 = 0.2 | 1013.3 | 1006.8 | 998.1 | 989.5 | 2.519 | 2.021 | 1.656 | 1.388
x2 = 0.3 | 997.5 | 990.9 | 982.3 | 973.8 | 2.462 | 1.958 | 1.605 | 1.342
x2 = 0.4 | 979.9 | 973.3 | 964.8 | 956.4 | 2.41 | 1.919 | 1.568 | 1.308
x2 = 0.5 | 960.3 | 953.7 | 945.3 | 937 | 2.384 | 1.868 | 1.525 | 1.272
x2 = 0.6 | 938.3 | 931.6 | 923.4 | 915.2 | 2.375 | 1.834 | 1.505 | 1.247
x2 = 0.7 | 913.2 | 906.6 | 898.5 | 890.4 | 2.427 | 1.863 | 1.508 | 1.244
x2 = 0.8 | 884.5 | 877.9 | 869.9 | 862 | 2.51 | 1.982 | 1.59 | 1.302
x2 = 0.9 | 851.3 | 844.6 | 836.8 | 829.1 | 2.704 | 2.168 | 1.727 | 1.394
